Laboratory results published in US6743640B2, “Fluorescent polymer-QTL approach to biosensing” (priority 2000, dated 2004).

Target: avidin (Gallus gallus, UniProt P02701)
Assay: Competitive avidin-biotin fluorescence quench assay with 263 PRU cyanine polymer
Procedure: A preferred embodiment for using a cyanine polymer/QTL approach consists of a competitive assay based on selective quenching of a cyanine polymer solution. For example, a 263 polymer repeat unit (PRU) cyanine polymer can be conveniently used in a fluorescence quench competitive bioassay. A competitive assay involving the avidin-biotin receptor-ligand system was conducted as follows: 500 μl of 0.1 μM of this polymer was added to the filtrate (lower) chamber of each of 3 separate Microcon YM-30 centrifugal filter vials. In each of these devices the filtrate chamber is separated from the retentate (upper) chamber by a 30 kilodalton (KD) nominal molecular weight cutoff (NMWCO) cellulose membrane. This membrane is impermeable to the 66 KD protein avidin but allows the biotin-anthraquinone conjugate to pass. […] Since each avidin has four biotin binding sites, this sub-stoichiometric ratio ensures full binding of all QTL conjugate to avidin. The three retentate chambers were charged with a.) 0.5 μM D-Biotin, b. and c.) 0.8 μM AQS-biotin conjugate complexed with 1.0 μM avidin. The 3 tubes were then each sealed and incubated for 10 minutes, after which time 0.5 μM D-Biotin was added to vial c. […] The fluorescence emission of all three filtrates was then measured at 20.0° C.+/−0.1° C. on a SPEX FluoroMax-3. […]

avidin, sequence (P02701 25-152, species assumed): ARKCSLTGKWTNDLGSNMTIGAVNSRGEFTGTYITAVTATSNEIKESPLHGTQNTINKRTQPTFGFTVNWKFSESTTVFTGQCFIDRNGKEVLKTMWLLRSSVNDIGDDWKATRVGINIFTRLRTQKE

In the case of O=C(O)CCCC[C@@H]1SC[C@@H]2NC(=O)N[C@@H]21 [biotin, D-Biotin], the “quenching of cyanine polymer after adding competitor to QTL-avidin solution” value (0.8 μM AQS-biotin conjugate with 1.0 μM avidin) is reported as “quenching occurred” and the “quenching of cyanine polymer in filtrate, sample alone” value (sample alone in retentate chamber, 30 KD membrane, 263 PRU polymer 0.1 μM) is reported as “no quenching”.
